{
  "source": "paper PMC7888603",
  "about": "(PLoS Pathogens, 2021)",
  "key": {"in vitro": {"experiment": "in vitro", "settings": "human"}, "pseudotyped WT-EBOV [1]": {"tested_on": "pseudotyped WT-EBOV", "experiment": "microbe, parasite or virus in culture", "type": "cell-based, Ebola virus"}, "pseudotyped WT-MARV [2]": {"tested_on": "pseudotyped WT-MARV", "experiment": "microbe, parasite or virus in culture", "type": "cell-based, Marburg virus", "settings": "for IC50: Human immunodeficiency virus 1, A549, read-out: IC50 (µM) (MARV)"}, "EBOV GP": {"target": "EBOV GP", "settings": "cited from earlier work"}, "[3]": {"tested_on": "lysotracker red accumulation in lysosomes, A549 cells", "experiment": "cells", "type": "cell-based, Human", "settings": "for IC50: Homo sapiens, A549, read-out: IC50, inhibition of lysotracker red accumulation in lysosomes"}, "[4]": {"tested_on": "pseudotyped vesicular stomatitis virus (VSV)", "type": "cell-based"}, "pseudotyped WT-EBOV [5]": {"tested_on": "pseudotyped WT-EBOV", "experiment": "microbe, parasite or virus in culture", "type": "cell-based, Ebola virus", "settings": "Zaire ebolavirus, read-out: EBOV Inhibition (%)"}, "pseudotyped WT-MARV [6]": {"tested_on": "pseudotyped WT-MARV", "experiment": "organism not typed", "type": "cell-based, Marburg virus", "settings": "read-out: MARV Inhibition (%)"}, "RAVN GPΔmucin": {"target": "RAVN GPΔmucin (Lake Victoria marburgvirus, UniProt Q1PDC7)", "settings": "200 µM"}, "Ebola": {"tested_on": "Ebola", "settings": "cited from earlier work"}, "lysosomes": {"tested_on": "lysosomes", "settings": "cited from earlier work"}, "[7]": {"tested_on": "pseudotyped influenza H5N1", "type": "cell-based"}, "EBOV HR2 peptide ([…])": {"target": "EBOV HR2 peptide ([…]) (Zaire ebolavirus, UniProt Q05320)", "type": "binding, Ebola virus", "settings": "pH 5.2"}, "[8]": {"settings": "Zaire ebolavirus, A549, read-out: IC50 (µM) (EBOV)"}},
  "note": "“Also recorded” adds a separate entry of the source. Where two headings read alike, the source gives them in different places.",
  "data": [
    {"compound": "CN1[C@@H]2CC[C@H]1C[C@@H](OC(c1ccccc1)c1ccccc1)C2", "note": "[Benztropine]", "values": [
      {"measurement": "CC50", "setting": "in vitro", "result": "52.9 ± 6.1", "unit": "µM"}
    ]},
    {"compound": "CC(C)COCC(CN(Cc1ccccc1)c1ccccc1)N1CCCC1", "note": "(stereo not drawn) [Bepridil]", "values": [
      {"measurement": "IC50", "setting": "pseudotyped WT-EBOV [1]; [8]", "result": "1.6 ± 0.8", "unit": "µM"},
      {"measurement": "IC50", "setting": "pseudotyped WT-MARV [2]", "result": "10 ± 2", "unit": "µM"},
      {"measurement": "Kd", "setting": "EBOV GP", "result": 290, "unit": "µM"},
      {"measurement": "CC50", "setting": "in vitro", "result": "34.7 ± 4.6", "unit": "µM"}
    ]},
    {"compound": "CA-074", "values": [
      {"measurement": "IC50", "setting": "pseudotyped WT-EBOV [1]; read-out: IC50 (µM) (EBOV)", "result": "32 ± 8", "unit": "µM"},
      {"measurement": "CC50", "setting": "A549 cells", "result": "> 100", "unit": "µM"}
    ]},
    {"compound": "CCN(CC)CCCC(C)Nc1ccnc2cc(Cl)ccc12", "note": "(stereo not drawn) [chloroquine]", "values": [
      {"measurement": "IC50", "setting": "[3]", "result": 3.3, "unit": "µM"}
    ]},
    {"compound": "CCCCOc1cc(C(=O)NCCN(CC)CC)c2ccccc2n1", "note": "[Dibucaine]", "values": [
      {"measurement": "IC50", "setting": "pseudotyped WT-EBOV [1]; [8]", "result": "3.2 ± 0.2", "unit": "µM"},
      {"measurement": "IC50", "setting": "pseudotyped WT-MARV [2]", "result": "6 ± 2", "unit": "µM"},
      {"measurement": "CC50", "setting": "in vitro", "result": "67.1 ± 8", "unit": "µM"}
    ]},
    {"compound": "CN(C)CCOc1ccc(/C(=C(/CCCl)c2ccccc2)c2ccccc2)cc1", "note": "[Toremifene]", "values": [
      {"measurement": "IC50", "setting": "pseudotyped WT-EBOV [1]; [8]", "result": "0.021 ± 0.009", "unit": "µM"},
      {"measurement": "IC50", "setting": "pseudotyped WT-EBOV [1]; Zaire ebolavirus, A549, read-out: Toremifene IC50 (µM)", "result": 0.01, "unit": "µM"},
      {"measurement": "Toremifene at 10 µM (% Infection)", "setting": "pseudotyped WT-MARV [2]", "result": 3, "unit": "%"},
      {"measurement": "IC50", "setting": "pseudotyped WT-MARV [2]", "result": "1.6 ± 0.6", "unit": "µM"},
      {"measurement": "IC50", "setting": "[3]", "result": 9.7, "unit": "µM"},
      {"measurement": "inhibition of pseudotyped vesicular stomatitis virus (VSV)", "setting": "[4]", "result": "no inhibition"},
      {"measurement": "inhibition at 0.0312 µM", "setting": "pseudotyped WT-EBOV [5]", "result": 5.93, "unit": "%"},
      {"measurement": "inhibition at 0.0625 µM", "setting": "pseudotyped WT-EBOV [5]", "result": 21.8, "unit": "%"},
      {"measurement": "inhibition at 0.125 µM", "setting": "pseudotyped WT-EBOV [5]", "result": 41.2, "unit": "%"},
      {"measurement": "inhibition at 0.25 µM", "setting": "pseudotyped WT-EBOV [5]", "result": 66.6, "unit": "%"},
      {"measurement": "inhibition at 0.5 µM", "setting": "pseudotyped WT-EBOV [5]", "result": 88.5, "unit": "%"},
      {"measurement": "inhibition at 0.625 µM", "setting": "pseudotyped WT-MARV [6]", "result": -3.12, "unit": "%"},
      {"measurement": "inhibition at 1.25 µM", "setting": "pseudotyped WT-MARV [6]", "result": -0.5, "unit": "%"},
      {"measurement": "inhibition at 2.5 µM", "setting": "pseudotyped WT-MARV [6]", "result": 23.1, "unit": "%"},
      {"measurement": "inhibition at 5 µM", "setting": "pseudotyped WT-MARV [6]", "result": 71.2, "unit": "%"},
      {"measurement": "inhibition at 10 µM", "setting": "pseudotyped WT-MARV [6]", "result": 99, "unit": "%"},
      {"measurement": "decrease in Tm of MARV (RAVN) GP", "setting": "RAVN GPΔmucin", "result": "~ 5 °C"},
      {"measurement": "CC50", "setting": "in vitro", "result": "26.9 ± 2.4", "unit": "µM"}
    ]},
    {"compound": "CNCCCN1c2ccccc2CCc2ccccc21", "note": "[desipramine]", "values": [
      {"measurement": "Ebola entry inhibition in screen of FDA approved drugs", "setting": "Ebola", "result": "not Ebola entry inhibitors"},
      {"measurement": "accumulation in lysosomes", "setting": "lysosomes", "result": "accumulate in lysosomes"}
    ]},
    {"compound": "OCCOc1ccc(/C(=C(/CCCl)c2ccccc2)c2ccccc2)cc1", "note": "[Ospemifene]", "values": [
      {"measurement": "IC50", "setting": "pseudotyped WT-EBOV [1]; [8]", "result": "19 ± 10", "unit": "µM"},
      {"measurement": "loss of potency for MARV", "setting": "pseudotyped WT-MARV [2]", "result": 35, "unit": "fold"},
      {"measurement": "IC50", "setting": "pseudotyped WT-MARV [2]", "result": "35 ± 3", "unit": "µM"},
      {"measurement": "lysosome trapping", "setting": "[3]", "result": "no trapping at any concentration; also recorded: no effect"},
      {"measurement": "CC50", "setting": "A549 cells; human", "result": 57, "unit": "µM"},
      {"measurement": "decrease in Tm of MARV (RAVN) GP", "setting": "RAVN GPΔmucin", "result": 2, "unit": "°C"},
      {"measurement": "CC50", "setting": "in vitro; CC50 (µM)", "result": 56, "unit": "µM"}
    ]},
    {"compound": "CC(=O)N[C@@H](CC(C)C)C(=O)N[C@@H](CC(C)C)C(=O)N[C@H](C=O)CCCNC(=N)N", "note": "[Leupeptin]", "values": [
      {"measurement": "IC50", "setting": "pseudotyped WT-EBOV [1]; [8]", "result": "0.35 ± 0.07", "unit": "µM"},
      {"measurement": "IC50", "setting": "pseudotyped WT-MARV [2]", "result": "0.6 ± 0.1", "unit": "µM"},
      {"measurement": "CC50", "setting": "in vitro", "result": "> 100", "unit": "µM"}
    ]},
    {"compound": "CNCCC(Oc1ccc(C(F)(F)F)cc1)c1ccccc1", "note": "(stereo not drawn) [Fluoxetine]", "values": [
      {"measurement": "inhibition of pseudotyped vesicular stomatitis virus (VSV)", "setting": "[4]", "result": "no inhibition"},
      {"measurement": "inhibition of pseudotyped influenza H5N1", "setting": "[7]", "result": "no inhibition"},
      {"measurement": "inhibition at 0.625 µM", "setting": "pseudotyped WT-EBOV [5]", "result": 6.94, "unit": "%"},
      {"measurement": "inhibition at 1.25 µM", "setting": "pseudotyped WT-EBOV [5]", "result": 21.4, "unit": "%"},
      {"measurement": "inhibition at 2.5 µM", "setting": "pseudotyped WT-EBOV [5]", "result": 44.8, "unit": "%"},
      {"measurement": "inhibition at 5 µM", "setting": "pseudotyped WT-EBOV [5]", "result": 55.7, "unit": "%"},
      {"measurement": "inhibition at 10 µM", "setting": "pseudotyped WT-EBOV [5]", "result": 79.2, "unit": "%"},
      {"measurement": "inhibition at 0.625 µM", "setting": "pseudotyped WT-MARV [6]", "result": 35.7, "unit": "%"},
      {"measurement": "inhibition at 1.25 µM", "setting": "pseudotyped WT-MARV [6]", "result": 46.4, "unit": "%"},
      {"measurement": "inhibition at 2.5 µM", "setting": "pseudotyped WT-MARV [6]", "result": 62, "unit": "%"},
      {"measurement": "inhibition at 5 µM", "setting": "pseudotyped WT-MARV [6]", "result": 74.4, "unit": "%"},
      {"measurement": "inhibition at 10 µM", "setting": "pseudotyped WT-MARV [6]", "result": 88.8, "unit": "%"},
      {"measurement": "binding to EBOV HR2 peptide (NOESY)", "setting": "EBOV HR2 peptide ([…])", "result": "intermolecular NOEs, highlighted by red arrows, are observed"},
      {"measurement": "CC50", "setting": "in vitro", "result": "28.7 ± 0.1", "unit": "µM"}
    ]},
    {"compound": "CN(C)CCCN1c2ccccc2CCc2ccccc21", "note": "[Imipramine]", "values": [
      {"measurement": "IC50", "setting": "pseudotyped WT-EBOV [1]; [8]", "result": "2.6 ± 0.1", "unit": "µM"},
      {"measurement": "IC50", "setting": "pseudotyped WT-MARV [2]", "result": "6.4 ± 0.6", "unit": "µM"},
      {"measurement": "Kd", "setting": "EBOV GP", "result": 584, "unit": "µM"},
      {"measurement": "CC50", "setting": "in vitro", "result": "76.3 ± 7.4", "unit": "µM"}
    ]},
    {"compound": "CN[C@H]1CC[C@@H](c2ccc(Cl)c(Cl)c2)c2ccccc21", "note": "[Sertraline]", "values": [
      {"measurement": "CC50", "setting": "in vitro", "result": "22.6 ± 6.2", "unit": "µM"}
    ]},
    {"compound": "CC(C)NCC(O)COc1cccc2ccccc12", "note": "(stereo not drawn) [propranolol]", "values": [
      {"measurement": "Ebola entry inhibition in screen of FDA approved drugs", "setting": "Ebola", "result": "not Ebola entry inhibitors"},
      {"measurement": "accumulation in lysosomes", "setting": "lysosomes", "result": "accumulate in lysosomes"}
    ]},
    {"compound": "Fc1ccc([C@@H]2CCNC[C@H]2COc2ccc3c(c2)OCO3)cc1", "note": "[Paroxetine]", "values": [
      {"measurement": "IC50", "setting": "pseudotyped WT-EBOV [1]; [8]", "result": "0.34 ± 0.05", "unit": "µM"},
      {"measurement": "IC50", "setting": "pseudotyped WT-MARV [2]", "result": "3.1 ± 0.1", "unit": "µM"},
      {"measurement": "Kd", "setting": "EBOV GP", "result": 650, "unit": "µM"},
      {"measurement": "CC50", "setting": "in vitro", "result": "23.1 ± 6.3", "unit": "µM"}
    ]}
  ]
}
